Reference: patent US5211944A, “Proanthocyanidin polymers having antiviral activity and methods of obtaining same” (Shaman Pharmaceuticals, Inc., priority 1991, dated 1993)

How the values were obtained:
Herpes Simplex virus [1] = settings: Beladi et al., 1977; in vitro; cited from earlier work
Herpes Simplex virus [2] = settings: HEp-2 cells; Beladi et al.; cited from earlier work
Herpes simplex virus [3] = settings: cited from earlier work
[4] = tested on: Herpes Simplex Virus Type 2 (HSV-2); experiment: HSV-2 vaginitis in mice, intraperitoneal treatment; type: in vivo, Swiss Webster mice; settings: 30 mg/kg/day i.p.
[5] = Uninfected toxicity controls, i.p. treatment (HSV-2 study); type: in vivo, Swiss Webster mice; settings: 30 mg/kg/day i.p.
Method: Six hours after virus infection, intraperitoneal (i.p.) injections were administered using proanthocyanidin polymer A, ganciclovir, or placebo. Treatments were also given i.p. twice daily on days 1 through 7 after virus challenge. The daily dose of each compound was 30 mg/kg/day, with 15 mg/kg given at each injection. Since on day 0 of the infection only one dose was given, the daily dose for that day was 15 mg/kg/day.
(§1) Groups of 5 mice were sham-infected using the process described above for virus infection, except that no virus was present for the final step. These mice were treated the same way and at the same times as above. Mice were checked daily for survival, and weights were recorded before the first (day 0) and after the last (day 8) treatment.

Influenza viruses = settings: cited from earlier work
[6] = tested on: Herpes Simplex Virus Type 2 (HSV-2); experiment: HSV-2 vaginitis in mice, topical treatment; type: in vivo, Swiss Webster mice
[7] = Uninfected toxicity controls, topical treatment (HSV-2 study); type: in vivo, Swiss Webster mice; settings: 5% topical
Method: as §1
The efficacy of proanthocyanidin polymer A is compared with ganciclovir and acyclovir. Both ganciclovir powder and acyclovir cream were obtained commercially. Squibb cream base #8, which served as a vehicle and as the topical placebo control, was also commercially obtained.
The methods of infecting the mice, setting toxicity control and the parameters measured to evaluate the infection were the same as described above for the intraperitoneal tests. Topical treatments on the day of infection were given at +6 hours. They were then given twice daily for 7 more days.

O=c1cc(-c2ccc(O)cc2)oc2cc(O)cc(O)c12 [Apigenin]
virus-inactivating (viricidal) activity (Herpes Simplex virus [1]): only a slight effect

O=c1c(O)c(-c2ccc(O)c(O)c2)oc2cc(O)cc(O)c12 [quercetin]
inhibitory effect on virus multiplication (Herpes Simplex virus [2]): only a slight inhibitory effect on virus multiplication

Nc1ncnc2c1ncn2[C@@H]1O[C@H](CO)[C@@H](O)[C@@H]1O [Vidarabine, adenine arabinoside]
topical effectiveness (Herpes simplex virus [3]): not effective topically against herpes labialis or other skin/genital infections

Nc1nc(O)c2ncn(COC(CO)CO)c2n1 [Ganciclovir]
Average Lesion Score ([4]; day 3): 0.1 ± 0.2 | Average Lesion Score ([4]; day 4): 0.2 ± 0.2 | Average Lesion Score ([4]; day 5): 0.2 ± 0.2 | Average Lesion Score ([4]; day 6): 0.2 ± 0.2 | Average Lesion Score ([4]; day 7): 0.2 ± 0.2 | Average Lesion Score ([4]; day 8): 0.3 ± 0.4 | Average Lesion Score ([4]; day 9): 0.4 ± 0.3 | Average Lesion Score ([4]; day 10): 0.5 ± 0.5 | Average Lesion Score ([4]; day 12): 0.9 ± 0.2 | Average Lesion Score ([4]; day 13): 0.6 ± 0.6 | Average Lesion Score ([4]; day 14): 0.6 ± 0.6 | Average Lesion Score, Grand Avg. ([4]; days 3-14): 0.4 ± 0.2 | Virus Titer (Day 3) ([4]; vaginal swab): 1.7 ± 1.0 Log10 50% cell culture infectious dose per ml | Mean Day to Death ([4]; virus-infected): > 21 days | Survivors (%) ([4]; virus-infected): 100% | Survivors/Total ([4]; virus-infected): 10/10 | tolerability in toxicity control mice [5]: gained less weight than placebo controls | Host Wt. Change ([5]; day 8 minus day 0): +1.0 grams | Mean Day to Death ([5]; uninfected toxicity controls): > 21 days | Survivors/Total ([5]; uninfected toxicity controls): 5/5 | survival ([5]; mouse, in vivo, ip, uninfected toxicity controls, read-out: Survivors (%)): 100%

CC(N)C12CC3CC(CC(C3)C1)C2 (racemic) [Rimantidine]
central nervous system side effects (Influenza viruses): not associated with the central nervous system side-effects | effect on fever duration and respiratory symptoms, versus amantadine (Influenza viruses): shows a similar effect

Nc1nc2c(ncn2COCCO)c(=O)[nH]1 [Acyclovir]
topical effectiveness (Herpes simplex virus [3]): not effective topically when used against recurrent genital infections | lesion formation in infected animals ([6]; 5% cream): nearly completely prevented lesion formation | Average Lesion Score ([6]; 5% topical, day 3): 0.2 ± 0.2 | Average Lesion Score ([6]; 5% topical, day 4): 0.1 ± 0.2 | Average Lesion Score ([6]; 5% topical, day 5): 0.0 ± 0.0 | Average Lesion Score ([6]; 5% topical, day 6): 0.0 ± 0.0 | Average Lesion Score ([6]; 5% topical, day 7): 0.0 ± 0.0 | Average Lesion Score ([6]; 5% topical, day 8): 0.1 ± 0.2 | Average Lesion Score ([6]; 5% topical, day 9): 0.0 ± 0.0 | Average Lesion Score ([6]; 5% topical, day 10): 0.0 | Average Lesion Score ([6]; 5% topical, day 11): 0.0 ± 0.0 | Average Lesion Score ([6]; 5% topical, day 12): 0.0 ± 0.0 | Average Lesion Score ([6]; 5% topical, day 13): 0.0 ± 0.0 | Average Lesion Score ([6]; 5% topical, day 14): 0.0 ± 0.0 | No. of Mice W/O Lesion ([6]; 5% topical, day 14 of the infection): 10/10 | Virus Titer (Day 2) ([6]; 5% topical, vaginal): 0.6 ± 0.2 Log 10 50% cell culture infectious dose per ml | Mean Day to Death ([6]; 5% topical, virus-infected): > 21 days | Survivors (%) ([6]; 5% topical, virus-infected): 100% | Survivors/Total ([6]; 5% topical, virus-infected): 10/10 | Host Wt. Change ([7]; day 8 minus day 0): +2.0 grams | Mean Day to Death ([7]; uninfected toxicity controls): > 21 days | Survivors/Total ([7]; uninfected toxicity controls): 5/5 | survival ([7]; mouse, in vivo, topical or ocular, uninfected toxicity controls, read-out: Survivors (%)): 100%
